Results: patent US20230002446A1, “ANTI-INFLAMMATORY AGENTS” (The University of Sydney, priority 2019, published 2023)
Where a SMILES comes first, the peptide text is derived from it. [ ]: non-standard residue; d: D form. AEEA = NCCOCCOCC(=O)O

Assays:
C57BL/6 mice = assay: oxazolone murine model of atopic dermatitis; type: in vivo; settings: injection at day -1, or both day -7 and day -1; compared to PBS
Description: (§1) FIG. 13. RP23 treatment reduces inflammation in a murine model of atopic dermatitis. Ears and shaved backs of C57BL/6 female mice were sensitised (day 0) and challenged (day 7, 10, 14, 17, 19, 21, 23, 25 and 27) with topical application of the irritant oxazolone or vehicle only. Injection of mice with RP23 at day −1, or both day −7 and day −1, is compared to injection with PBS only (day −7 and day −1) or topical application of steroid (0.01% betamethasone dipropionate, 30 mgs) applied on the back at the time of every oxazolone application. Ear thickness was measured with manual callipers. Data are the means+/−SEM (n=5).
as §1, with “Ears” for “FIG. 13. RP23 treatment reduces inflammation in a murine model of atopic dermatitis. Ears”, “−1, was” for “−1, is”, “callipers.” for “callipers. Data are the means+/−SEM (n=5).”

CD11c+ dendritic cells = assay: MHCII on CD11c+ dendritic cells after intra-nasal instillation; type: in vivo, mice
Protocol: FIG. 15. Mucosal delivery of RP23 to the lungs decreases activation of antigen presenting cells in the lungs and bronchoalveolar space. (A) C57BL/6 mice (n=5) received either PBS or RP23 by intra-nasal instillation or (B) C57BL/6 mice (n=4) received either PBS, scramble RP23 peptide, or RP23 by intra-nasal instillation, then 24 hours later, Pam2Cys-SK4-PEG(OH) intra-nasally to induce an inflammatory state. 24 hours later, cells from the bronchoalveolar lavage and perfused lungs were collected. The median fluorescence intensity of MHCII on CD11c^+ dendritic cells was determined by flow cytometry. Data are the means+/−SEM. Statistical significance was determined by (A) t-test, ***p<0.001 and (B) ANOVA with Dunnett's multiple comparison test to PBS control, *p<0.05.
Naïve C57BL/6 mice (n=5) received either PBS or RP23 by intra-nasal instillation, then 24 hours later, cells from the bronchoalveolar lavage and perfused lungs were collected. The median fluorescence intensity of MHCII on CD11c+ dendritic cells was determined by flow cytometry. […] To determine if this effect would be maintained once potent lung inflammation was induced, C57BL/6 mice (n=4) received either PBS, scramble RP23 peptide, or RP23 by intra-nasal instillation, then 24 hours later, Pam2Cys-SK4-PEG(OH) was given intra-nasally to induce an inflammatory state.

[1] = test system: murine bone marrow derived macrophages; assay: LPS-stimulated bone marrow derived macrophages, cytokine ELISA; type: cell-based; settings: after LPS-stimulation
Protocol: FIG. 5—Peptide administration reduces the activation of pro-inflammatory DCs and macrophages. (A) C57BL/6 murine splenocytes were stimulated with LPS±peptide RP23 (SEQ ID NO:12) and expression of activation markers on DCs was assessed by flow cytometry. (B) Bone marrow derived murine macrophages were incubated with peptide RP23 (30 mins) and stimulated with LPS (overnight). Positive controls were stimulated with LPS only. Negative controls were unstimulated. Inflammatory cytokine production was assessed by ELISA. (C) CD14+ cells were isolated from human blood and differentiated into macrophages by culturing with human serum. Cells were incubated with peptide RP23 (30 mins), then stimulated overnight with LPS (left panel) or imiquimod (right panel). Inflammatory cytokine (IL-6 or IL-12/23) production was assessed by ELISA. Representative of 6 donors. Data are presented as mean±S.E.M. Statistical significance was determined by ANOVA with Dunnett's multiple comparison test, *p<0.05, **p<0.01, ***p<0.001.
Using an in vitro culture system, it was determined whether RP23 could suppress the activity of specific pro-inflammatory immune cells. […] The culture of murine bone marrow derived macrophages with RP23 led to reduced IL-6, MCP-1 and TNF release after LPS-stimulation (FIG. 5b). Similarly, primary human blood derived macrophages had reduced IL-6 and IL-12/23 release after stimulation with either LPS or imiquimod (FIG. 5c).

[2] = Pam2Cys-SK4-PEG(OH) intra-nasally 24 hours after peptide

## CSCC[C@H](NC(=O)COCCOCCNC(=O)[C@H](CCCCN)NC(=O)[C@H](CCCCN)NC(=O)[C@H](CCCCN)NC(=O)[C@@H](N)CCCCN)C(=O)N[C@H](C(=O)N1CCC[C@H]1C(=O)NCC(=O)N[C@H](C(=O)N[C@@H](CCC(N)=O)C(=O)N[C@@H](CO)C(=O)N1CCC[C@H]1C(=O)N[C@@H](Cc1ccccc1)C(=O)N[C@@H](Cc1ccccc1)C(=O)N[C@@H](CC(C)C)C(=O)N[C@@H](CC(C)C)C(=O)N[C@@H](CC(C)C)C(=O)N[C@@H](CC(C)C)C(=O)N[C@@H](CC(C)C)C(=O)N[C@H](C(=O)N[C@H](C(=O)N[C@@H](CC(C)C)C(=O)N[C@H](C(=O)N[C@H](C(=O)N[C@H](C(=O)O)C(C)C)C(C)C)[C@@H](C)O)C(C)C)[C@@H](C)O)[C@@H](C)O)[C@@H](C)O [RP23] (H-KKKK[AEEA]MTPGTQSPFFLLLLLTVLTVV-OH)
C57BL/6 mice
  inflammation in the ears (ear thickness): reduced inflammation in the ears
CD11c+ dendritic cells; [2]
  MHCII expression on DC in the bronchoalveolar space: also on DC in the bronchoalveolar space
  MHCII expression on lung DC: reduced MHCII expression on lung DC
CD11c+ dendritic cells; naive mice, 24 hours after intra-nasal instillation
  MHCII expression on DC in the lung tissue: substantially reduced
[1]
  IL-6 release: reduced
  MCP-1 release: reduced
  TNF release: reduced
